Laboratory results as given in paper PMC7946403, “Targeted LC-MS/MS platform for the comprehensive determination of peptides in the kallikrein-kinin system” (Analytical and Bioanalytical Chemistry, 2021).
Counter-ions that a name gives are not always drawn.

Test system: artificial generation of bradykinin
Test: Evaluation of inhibitors preventing the artificial formation of bradykinin for generation of blank plasma
Parameters: species or system human
Conditions: plasma from prespiked S-Monovettes stored at 21 °C, analysed after 30 min, 1.5 h and 4.5 h, n = 3
Procedure: Due to the endogenous presence of kinins in human plasma, it was aimed to develop a surrogate matrix mimicking human biological samples at best. Therefore, distinct serine protease inhibitors were evaluated for their ability to prevent the artificial generation of bradykinin after blood sampling. […] Therefore, plasma was drawn into prespiked S-Monovettes® and aliquots of the plasma stored at 21 °C were analysed after 30 min, 1.5 h and 4.5 h. The following inhibitors were investigated and compared to plasma without inhibitor (each n = 3): 4-(2-aminoethyl)benzolsulfonylfluoride (AEBSF), hexadimethrine bromide, aprotinin, nafamostat mesylate and leupeptin. Additionally, the final blank generation protocol was evaluated for six human sources, whose generated blanks were analysed in triplicate to ensure the depletion of endogenous peptides across multiple sources.
In the case of `NCCc1ccc(S(=O)(=O)F)cc1` [AEBSF, 4-(2-aminoethyl)benzolsulfonylfluoride], the “Prevention of artificial generation of bradykinin (in words)” value (“Prevention” for short) was “did not sufficiently prevent the artificial generation of bradykinin”. In the case of `CC(=O)N[C@@H](CC(C)C)C(=O)N[C@@H](CC(C)C)C(=O)N[C@H](C=O)CCCNC(=N)N` [leupeptin], the “Prevention” value was “only decreased the formation of bradykinin at the 0.5 h and 1.5 h timepoints”. In the case of `N=C(N)c1ccc2cc(OC(=O)c3ccc(N=C(N)N)cc3)ccc2c1` [nafamostat, nafamostat mesylate], the “Prevention” value was “only decreased the formation of bradykinin at the 0.5 h and 1.5 h timepoints”. With hexadimethrine bromide the “Prevention” value was “lowest levels of bradykinin were detected”. For aprotinin, the “Prevention” value was “did not sufficiently prevent the artificial generation of bradykinin”.

Test system: not given
Test: not given
Type: in vitro ADME, human
Conditions: not given
Procedure: In this study, human blank plasma was generated by sampling blood into trisodium citrate S-Monovettes® spiked with hexadimethrine bromide and nafamostat mesylate to prevent the artificial generation of bradykinin. After centrifugation at 2000×g for 10 min at room temperature, the plasma was left at room temperature for 4 h to enable degradation of short-lived kinins. The blank plasma generated was stored at −20 °C until use.
Before preparation of quality control (QC) or calibration curve samples, a protease inhibitor was added to blank plasma samples, following a protocol derived from Nussberger et al.. Solid-phase extraction (SPE) was performed using 96-well Oasis weak cation exchange (WCX) μ-elution plates (Waters, Milford, MA, USA). The wells were conditioned with 200 μL methanol, followed by 200 μL water. […]
Finally, stability was examined using three replicates of four QC levels (high [750.0 pg/mL], mid [125.0 pg/mL] and low [31.1 pg/mL and 7.8 pg/mL]). […] Freeze-thaw stability was determined after one, two and four cycles of complete thawing and refreezing of samples at −80 °C. Furthermore, long-term stability of the plasma samples was analysed after 1, 2 and 4 weeks. For all stability investigations, the maximum deviation of the calculated concentration to the nominal concentration compared to a freshly prepared calibration curve was ≤15% (RE).
In the case of “bradykinin 1-5 (RPPGF; Bradykinin; UniProt P01042 381-385, looked up, fragment)”, the “Freeze-thaw stability (in words)” value was “trended towards a decrease”. For “bradykinin 1-7 (RPPGFSP; Bradykinin; UniProt P01042 381-387, looked up, fragment)”, the “Freeze-thaw stability (in words)” value was “trended towards a decrease”.
